Laboratory results: ChEMBL document CHEMBL1149775, “Synthesis, characterization and biological activity of Schiff base analogues of indole-3-carboxaldehyde” (2008)
Values after ≈ are worked out from the molar mass of the structure shown.

How the values were obtained:
Assay type in all cases: functional
Candida albicans = experiment: Antifungal activity against Candida albicans after 48 hrs by serial plate dilution method
Trichophyton rubrum = experiment: Antifungal activity against Trichophyton rubrum after 48 hrs by serial plate dilution method
Staphylococcus aureus = experiment: Antibacterial activity against Staphylococcus aureus after 24 hrs by broth dilution technique
Bacillus subtilis = experiment: Antibacterial activity against Bacillus subtilis after 24 hrs by broth dilution technique
Pseudomonas fluorescens = experiment: Antibacterial activity against Pseudomonas fluorescens after 24 hrs by broth dilution technique
Aspergillus niger = experiment: Antifungal activity against Aspergillus niger after 48 hrs by serial plate dilution method

| Structure (SMILES) | MIC (Candida albicans) | MIC (Trichophyton rubrum) | MIC (Staphylococcus aureus) | MIC (Bacillus subtilis) | MIC (Pseudomonas fluorescens) | MIC (Aspergillus niger) |
| --- | --- | --- | --- | --- | --- | --- |
| O=C(O)C(Cc1c[nH]cn1)/N=C/c1c[nH]c2ccccc12 (configuration not stated) | > 50 µg/mL | > 50 µg/mL | 3.4 µg/mL (≈ 12 µM) | 35.1 µg/mL (≈ 124 µM) | 3.8 µg/mL (≈ 13.5 µM) | 47.5 µg/mL (≈ 168 µM) |
| O=C(O)CCC(/N=C/c1c[nH]c2ccccc12)C(=O)O (configuration not stated) | 12.5 µg/mL (≈ 45.6 µM) | > 50 µg/mL | 19.2 µg/mL (≈ 70 µM) | 48.2 µg/mL (≈ 176 µM) | 5.7 µg/mL (≈ 20.8 µM) | > 50 µg/mL |
| CC(C)CC(/N=C/c1c[nH]c2ccccc12)C(=O)O (configuration not stated) | 19.9 µg/mL (≈ 77 µM) | > 50 µg/mL | 35.3 µg/mL (≈ 137 µM) | 12.1 µg/mL (≈ 46.8 µM) | > 50 µg/mL | > 50 µg/mL |

Now from value to molecule:

| MIC (Candida albicans) | MIC (Trichophyton rubrum) | MIC (Staphylococcus aureus) | MIC (Bacillus subtilis) | MIC (Pseudomonas fluorescens) | MIC (Aspergillus niger) | Structure (SMILES) |
| --- | --- | --- | --- | --- | --- | --- |
| 28.4 µg/mL (≈ 120 µM) | > 50 µg/mL | 35.9 µg/mL (≈ 152 µM) | 18.4 µg/mL (≈ 77.9 µM) | 15.8 µg/mL (≈ 66.9 µM) | > 50 µg/mL | Oc1ccccc1/N=C/c1c[nH]c2ccccc12 |
| 11.9 µg/mL (≈ 45.7 µM) | 16.2 µg/mL (≈ 62.2 µM) | 18.5 µg/mL (≈ 71.1 µM) | 11.3 µg/mL (≈ 43.4 µM) | 19.3 µg/mL (≈ 74.2 µM) | 17.8 µg/mL (≈ 68.4 µM) | O=C(O)CC(/N=C/c1c[nH]c2ccccc12)C(=O)O (configuration not stated) |
| 26.8 µg/mL (≈ 110 µM) | > 50 µg/mL | 16.8 µg/mL (≈ 68.8 µM) | 42.5 µg/mL (≈ 174 µM) | 38.1 µg/mL (≈ 156 µM) | > 50 µg/mL | CC(C)C(/N=C/c1c[nH]c2ccccc12)C(=O)O (configuration not stated) |
| 15.2 µg/mL (≈ 41.5 µM) | 21.9 µg/mL (≈ 59.8 µM) | > 50 µg/mL | 15.5 µg/mL (≈ 42.3 µM) | 21.6 µg/mL (≈ 59 µM) | 21.3 µg/mL (≈ 58.1 µM) | O=S(=O)(O)c1cc(O)c(/N=C/c2c[nH]c3ccccc23)c2ccccc12 |
